Test results as given in patent publication US5942405A, “Therapeutic and screening methods using C3a receptor and C3a” (priority 1997, dated 1999).

How the values were obtained:
C3a Receptor = biological target: T1, C3a Receptor (Homo sapiens, UniProt Q16581); assay: Electrophysiological response (Ca2+ mediated chloride currents, two electrode voltage clamp) of Xenopus oocytes injected with C3a Receptor cRNA; assay type: cell-based; set-up: cDNA encoding a complete orphan GPCR of 482 amino acids; expressed in transfected cells; host or cells: Xenopus laevis oocytes microinjected with cRNA, with or without U937 total RNA; settings: for electrophysiological response of oocytes expressing C3a Receptor: oocytes co-injected with C3a Receptor cRNA (10 ng) and U937 RNA (25 ng), ligands 10 nM
T1 sequence (Q16581 1-482 F151C): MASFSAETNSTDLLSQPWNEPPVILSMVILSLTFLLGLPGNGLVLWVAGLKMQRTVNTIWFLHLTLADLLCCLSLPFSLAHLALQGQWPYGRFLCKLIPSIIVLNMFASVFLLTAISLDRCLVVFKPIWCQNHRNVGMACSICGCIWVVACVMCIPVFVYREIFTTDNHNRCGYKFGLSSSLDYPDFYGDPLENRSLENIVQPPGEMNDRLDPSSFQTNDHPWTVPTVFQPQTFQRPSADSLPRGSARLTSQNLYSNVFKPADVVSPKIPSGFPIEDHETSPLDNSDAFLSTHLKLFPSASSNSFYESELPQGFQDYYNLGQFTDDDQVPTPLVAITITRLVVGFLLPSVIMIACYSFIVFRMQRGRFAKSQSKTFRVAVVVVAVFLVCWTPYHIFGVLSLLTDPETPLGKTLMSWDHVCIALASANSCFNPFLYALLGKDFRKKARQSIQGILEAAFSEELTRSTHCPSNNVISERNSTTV
Protocol: (A) Electrophysiological response of Xenopus oocytes injected with cRNA for C3a Receptor (10 ng), total U937 RNA (25 ng), or a mixture of C3a Receptor (10 ng) and U937 RNA (25 ng) to 10 nM rC5a, 10 nM C3a analogue peptide, 10 nM platelet activating factor (PAF), 10 nM fMetLeuPhe. Inset, represents typical response of oocytes co-injected with C3a Receptor cRNA+U937 RNA to 10 nM C3a. (B) Electrophysiological response of oocytes injected with C5a-R cRNA (10 ng), U937 RNA (25 ng) or a mixture of C5a-R and U937 RNA, to 10 nM rC5a or 10 nM C3a analogue peptide. […] Calcium mobilization by Fura 2 loaded cells expressing C5a receptor (FIGS. 4A & 4C) or C3a Receptor (FIGS. 4B & 4D) in response to rC5a (10 nM, FIG. 4A or 100 nM, FIG. 4B) or C3a analogue peptide (1 uM, FIGS. 4C & 4D).
Capped cRNA transcripts were generated from linearized C3a Receptor and C5a-R plasmid DNA as previously described (Kumar, C. S., et al (1989) J. Biol. Chem. 264, 17939-17946) and suspended in sterile water at a concentration of 0.2 μg/μl. Ovarian lobes were surgically removed from adult female Xenopus laevis frogs and defolliculated Stage V oocytes were harvested by manual dissection (Smith, L. D., et al (1991) Methods in Cell Biology, 36, 45-54. Edited by B. K. Kay and H. B. Peng, Academic Press Inc., New York.). Oocytes were microinjected with C3a Receptor or C5a-R cRNA transcripts (10 ng/oocyte) with or without U937 total RNA (25 ng/oocyte) in a 50 nl volume using a Drummond microinjection apparatus and maintained in modified Barth's saline (Power, C. A., et al (1995) J. Biol. Chem., 270,19495-19500 ) at 18° C. Electrophysiological recordings from an average of 10 oocytes were made 48 h later at room temperature using the two electrode voltage clamp (Warner Instruments) technique. Membrane potentials were routinely clamped at -60 mV. Results represent average response determined in three separate experiments.
The chemotactic receptors for C5a and the fMLP-R have previously been functionally expressed in Xenopus laevis oocytes (Kroll, B., et al (1991) FEBS Lett. 291, 208-210; Murphy, P. M. & McDermott, D. (1991) J Biol. Chem. 266, 12560-12567; Murphy, P. M., Gallin, E. K., and Tiffany, H. L. (1990) J Immunol. 145, 2227-2234; Schultz, P., et al (1992) Cellular Signalling 4, 153-161) and, unlike all other GPCRs tested in this system, injection of cRNA for the cloned chemotactic receptors alone is insufficient to stimulate signal transduction in response to ligand binding (Kroll, B., et al (1991) FEBS Lett. 291, 208-210; Murphy, P. M. & McDermott, D. (1991) J Biol. Chem. 266, 12560-12567). Functional expression of both of these chemotactic receptors, as monitored by induction of Ca^2+ mediated chloride currents, requires the co-injection of a complimentary human factor which can be supplied by total RNA from myeloid or liver cells (Kroll, B., et al (1991) FEBS Lett. 291, 208-210; Murphy, P. M. & McDermott, D. (1991) J Biol. Chem. 266, 12560-12567). The co-factor is required for receptor-mediated signal transduction but not for expression of the C5a-R or fMLF-R on the surface of the oocytes (Murphy, P. M., et al (1990) J Immunol. 145, 2227-2234). […] Xenopus oocytes were used to functionally characterize C3a Receptor. […] Like the C5a-R and the fMLF-R, the response was dependent on the co-injection of a cofactor present in total HL-60 or U937 RNA. […] (FIG. 3B). Both the C5a-R as well as C3a Receptor elicited in oocytes a promiscuous response to the two anaphylatoxins.

C3a-R = settings: cited from earlier work
guinea pig ileal tissue = settings: C3a and C4a; cited from earlier work

**Q.** Which “electrophysiological response of oocytes expressing C3a Receptor” value (C3a Receptor) does the source give for `CSCC[C@H](NC=O)C(=O)N[C@@H](CC(C)C)C(=O)N[C@@H](Cc1ccccc1)C(=O)O` [fMLF, fMetLeuPhe] here?
**A.** not

**Q.** For `CCCCCCCCCCCCCCCCOCC(COP(=O)([O-])OCC[N+](C)(C)C)OC(C)=O` (centres unmarked) [platelet activating factor], which “electrophysiological response of oocytes expressing C3a Receptor” value (C3a Receptor) is on record?
**A.** not

**Q.** What does the source list for pertussis toxin?
**A.** sensitivity of functional activity of the C3a-R to pertussis toxin (C3a-R): sensitive; effect on response to the C3a peptide of oocytes co-injected with C3a Receptor and U937 RNA (C3a Receptor; response to C3a peptide, data not shown): abolished

B1: C4a: 74-77 amino acid anaphylatoxins C3a, C4a and C5a (protein, UniProt P0C0L4 680-756, looked up)
C4a anaphylatoxin: NVNFQKAINEKLGQYASPTAKRCCQDGVTRLPMMRSCEQRAARVQQPDCREPFLSCCQFAESLRKKSRDKGQAGLQR
modifications: C4a anaphylatoxin
notes: 74-77 amino acid anaphylatoxins C3a, C4a and C5a
**Q.** Which “cross desensitization of guinea pig ileal tissue” value (guinea pig ileal tissue) does the source give for B1 here?
**A.** cross desensitize
